Results reported in paper PMC8318231, “Rate-of-Kill (RoK) assays to triage large compound sets for Chagas disease drug discovery: Application to GSK Chagas Box” (PLoS Neglected Tropical Diseases, 2021).

Columns and labels:
[1] = test system: T. cruzi intracellular amastigotes in H9c2 cells; experiment: Rate-of-Kill (RoK) high-content imaging assay, amastigotes per cell (AM/CELL) and curve descriptors; format: cell-based, Trypanosoma cruzi; parameters: key to ME_24h / ME_48h / ME_72h: % reduction in parasite burden (cidal response); t50pct_MCC50 / t50pct_Cmax: unit not given here; settings: for ME_24h: 24h; for ME_48h: 48h; for ME_72h: 72h; for tlag_Cmax / t50pct_Cmax / t50%_Cmax: at Cmax; for ME_24h (%): maximum effect at 24 h; for ME_24h (%) / ME_48h (%) / ME_72h (%): RoK assay; for ME_48h (%): maximum effect at 48 h; for ME_72h (%): maximum effect at 72 h; for ME 24h (maximum effect at 24 hours, intracellular amastigotes): maximum percentage of parasite burden reduction reached by any concentration
Description: For this high-content intracellular imaging assay, H9c2 cells were seeded in 225 cm^2 T- FLASK in DMEM with 10% FBS for 4 h to allow attachment. T. cruzi trypomastigotes, collected at days 5 to 8 after infection from LLC-MK2 parasite infected cultures, were allowed to swim out for 4 h at 37°C from a centrifuged pellet (1,600 x g / 10 min). Trypomastigotes were then collected and counted in a CASY Cell Counter using the 60 μm capillary. Trypomastigotes, in supplemented DMEM, were added to H9c2 cultures in a multiplicity of infection (MOI) of 8 and incubated for 18 h. Cells were washed once with PBS before incubation of the infected H9c2 monolayer with trypsin (Life-Technologies) to detach cells from the flask. Cells were counted in a CASY Cell Counter, using the 150 μm capillary, and their density set at 5 x 10^4 cells/mL in supplemented DMEM. Infected H9c2 were dispensed into 384-well plates at 50 μL per well using a Multidrop Combi dispenser. Control wells used to determine a 100% parasitic growth (full 6th column of each plate) were left untreated, whereas not infected cells were added in the control wells used as 0% parasite growth (or 100% parasite growth inhibition; full 18th column of each plate). The four plates corresponding to each RoK assay were predispensed for the same mother plate. […] Cultures were then fixed and stained with 50 μL per well of a PBS solution containing 4% formaldehyde and 2 μM DRAQ5 DNA dye (BioStatus, UK). Then plates were read in a PerkinElmer Opera Phenix using a 20x objective, 3 fields per well. DRAQ5 signal was detected using 640 nm excitation laser and a 690/50 nm emission detection filter. Automated image analysis was performed with a script developed on Acapella High Content Imaging and Analysis Software (PerkinElmer). Two outputs were provided for each sample well: (1) number of host cells nuclei to determine drug-related cytotoxicity (aka H9c2) and (2) number of amastigotes per cell as infection level measurement (aka AM/CELL). Each output is plotted as a time course for each compound at every concentration. This assay was adapted from Alonso-Padilla et al. and Peña et al..
To identify and classify the different compounds, the number of amastigotes per cell (AM/CELL) raw data obtained in rate of kill assay are normalised using the average of C1 (infected cells) at time 4 hours as 0% effect and the average of C2 (non-infected cells) for each time as 100% effect, according to the following Eq 1: %CIDALRESPONSE=100*[Avg_C14h-RawData]/[Avg_C14h-Avg_C2] (1)
• ME (Maximum Effect) is the maximum percentage of parasite burden reduction reached by any compound concentration. Compounds that decrease the initial parasite load will show a positive value of ME, whereas compounds that allow the progression of infection will render a negative ME value. […] It is calculated for the MCC50 (t50%_MCC50) and for the maximum concentration (t50%_Cmax). […] The value of this parameter is not either interpolated or extrapolated, and it refers to the first experimental time-course point at which a 50% of effect is reached or exceeded. • tlag defines the time elapsed for one particular concentration to reduce parasite burden between two consecutive points at any moment of the time course. It is calculated for the MCC50 (tlag_MCC50) and for the maximum concentration (tlag_Cmax). The value of this parameter is not either interpolated or extrapolated, and it refers to the first experimental time-course point of a positive slope in the normalised plot (i.e. %Cidal_Response). • Cmin_Tox (Minimal CytoToxic Concentration) is the lowest compound concentration that is reducing the number of host mammalian cells below 50% of initial cell density. Cytotoxic compounds may mislead a bona fide antiparasitic action.

TcCYP51 = settings: formerly reported; cited from earlier work

Compound | ME_24h ([1]; figure 5) | ME_48h ([1]; figure 5) | ME_72h ([1]; figure 5) | MCCE ([1]; RoK curve descriptor) [µM] | AM/CELL NORM ([1]; Time 4, sheet figure 4 A) | AM/CELL NORM ([1]; Time 24, sheet figure 4 A) | AM/CELL NORM ([1]; Time 48, sheet figure 4 A) | AM/CELL NORM ([1]; Time 72, sheet figure 4 A) | tlag_Cmax [1] [h] | t50pct_Cmax ([1]; figure 5) | tlag_Cmax ([1]; figure 5) | t50pct_MCC50 ([1]; at MCC50, figure 5) | tlag_MCC50 ([1]; at MCC50, figure 5) | MCCE ([1]; figure 5) | ME_24h (%) [1] [%] | ME_48h (%) [1] [%] | ME_72h (%) [1] [%] | ME 24h (maximum effect at 24 hours, intracellular amastigotes) [1] [%] | CYP51 pIC50 (TcCYP51) | MCC50 ([1]; RoK curve descriptor) [µM] | other results
COc1cc(C(C)C)c(S(C)(=O)=O)cc1C(=O)N1CCN(c2ccccc2Cl)CC1 [TCMDC-143097] | -95.8223 | -1.8208 | 22.9753 | 1.9 | -12.0353 | -95.8223 | -56.5005 | 8.079 | 24.0 | 72 | 24 | 72 | 72 | 1.852 | -95.8 | -1.8 | 23.0 | -95.8223 | < 4 | – | MCC50 ([1]; figure 5): 50 µM
COc1ccc(NS(=O)(=O)c2cccc(NC(=O)c3cc(F)cc(F)c3)c2)cc1 [TCMDC-143108] | 74.207 | 103.042 | 85.1326 | 1.9 | – | – | – | – | 4.0 | 24 | 4 | 48 | 14 | 1.852 | 74.2 | 103.0 | 85.1 | 70.2211 | < 4 | 5.6 | AM/CELL NORM ([1]; Time 4, figure 4 A): 3.957; AM/CELL NORM ([1]; Time 24, figure 4 A): 27.4841; AM/CELL NORM ([1]; Time 48, figure 4 A): 38.7704; AM/CELL NORM ([1]; Time 72, figure 4 A): 44.9716; t50%_Cmax [1]: 24.0 h; t50%_MCC50 ([1]; at MCC50): 48.0 h; tlag_MCC50 ([1]; at MCC50): 14.0 h; MCC50 ([1]; figure 5, in µM): 5.556
Cc1cc(N(C)C)nc(Nc2ccccc2C)n1 [TCMDC-143109] | 47.5747 | 78.0835 | 82.1728 | 1.9 | 2.321 | 36.6087 | 78.0835 | 76.3621 | 4.0 | 48 | 4 | 48 | 4 | 1.852 | 47.6 | 78.1 | 82.2 | 47.5747 | < 4 | 5.6 | t50%_Cmax [1]: 48.0 h; t50%_MCC50 ([1]; at MCC50): 48.0 h; tlag_MCC50 ([1]; at MCC50): 4.0 h; MCC50 ([1]; figure 5, in µM): 5.556
O=C1CSC(c2cccnc2)N1c1ccc(Cl)cc1Cl (centres unmarked) [TCMDC-143114] | -4.949 | 48.1247 | 74.0117 | 0.6 | 4.621 | -4.949 | 48.1247 | 74.0117 | 24.0 | 72 | 24 | 72 | 24 | 0.6173 | -5.0 | 48.1 | 74.0 | -4.949 | 6.8 | 50.0 | t50%_Cmax [1]: 72.0 h; t50%_MCC50 ([1]; at MCC50): 72.0 h; tlag_MCC50 ([1]; at MCC50): 24.0 h; MCC50 ([1]; figure 5): 50 µM
